In article PMC10482301 (PLOS Neglected Tropical Diseases, 2023):
pIC50: −log10 of the molar value.

Tests used:
[1] = molecular target: T1, UDP-glucose 6-dehydrogenase (HsUGDH) (Homo sapiens, UniProt O60701); experiment: spectrophotometric assay, helper enzyme inhibited (no numbers shown); assay type: biochemical
T1 construct: gene UGDH; recombinant HsUGDH with N-terminal Strep-tag and four-residue linker
T1 sequence (O60701 1-494): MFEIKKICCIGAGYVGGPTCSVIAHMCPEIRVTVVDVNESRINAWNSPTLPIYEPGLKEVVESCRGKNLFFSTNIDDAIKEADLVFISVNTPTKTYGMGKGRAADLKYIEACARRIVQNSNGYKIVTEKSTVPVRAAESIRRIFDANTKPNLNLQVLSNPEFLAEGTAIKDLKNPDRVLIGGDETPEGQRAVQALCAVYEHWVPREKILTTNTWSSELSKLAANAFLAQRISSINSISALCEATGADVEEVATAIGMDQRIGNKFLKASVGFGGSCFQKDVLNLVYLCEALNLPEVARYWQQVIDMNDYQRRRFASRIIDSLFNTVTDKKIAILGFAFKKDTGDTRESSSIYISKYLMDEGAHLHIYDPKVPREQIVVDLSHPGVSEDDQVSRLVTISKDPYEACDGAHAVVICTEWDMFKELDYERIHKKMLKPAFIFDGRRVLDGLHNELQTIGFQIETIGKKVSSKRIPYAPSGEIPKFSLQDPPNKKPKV

[2] = molecular target: T2, UDP-glucose 4-epimerase (EhGalE) (Entamoeba histolytica, UniProt C4M746); experiment: RP-HPLC of UDP-Gal to UDP-Glc conversion by purified recombinant enzyme after […] min preincubation; assay type: biochemical
T2 construct: gene EHI_192050; full-length recombinant EhGalE (XP_650346) with N-terminal Strep-tag and Gly-Gly-Gly-Ser linker
T2 sequence (C4M746 1-341): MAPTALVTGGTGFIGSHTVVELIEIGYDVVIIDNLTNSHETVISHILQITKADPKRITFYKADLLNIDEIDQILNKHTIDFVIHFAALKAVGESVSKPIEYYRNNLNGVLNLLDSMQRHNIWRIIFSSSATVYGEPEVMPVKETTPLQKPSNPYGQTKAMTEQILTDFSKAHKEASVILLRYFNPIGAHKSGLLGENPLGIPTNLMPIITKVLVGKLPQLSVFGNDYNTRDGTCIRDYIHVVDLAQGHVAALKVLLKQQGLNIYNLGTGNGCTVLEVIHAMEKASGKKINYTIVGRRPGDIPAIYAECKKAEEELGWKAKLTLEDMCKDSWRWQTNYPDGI

CC/C(=C(/CC)c1ccc(O)cc1)c1ccc(O)cc1 [diethylstilbestrol]
spectrophotometric assay, helper enzyme inhibited (no numbers shown) [1]: the helper enzyme UGDH was inhibited by all three compounds

O=c1c2ccccc2[se]n1-c1ccccc1 [ebselen]
pIC50 [2]: 5.66 | spectrophotometric assay, helper enzyme inhibited (no numbers shown) [1]: the helper enzyme UGDH was inhibited by all three compounds

C=C(CC)C(=O)c1ccc(OCC(=O)O)c(Cl)c1Cl [ethacrynic acid]
spectrophotometric assay, helper enzyme inhibited (no numbers shown) [1]: the helper enzyme UGDH was inhibited by all three compounds
